This note sets out measurements from patent US20010056068A1, “METHOD OF TREATMENT AND PREVENTION OF NITRIC OXIDE DEFICIENCY-RELATED DISORDERS WITH CITRULLINE AND CITRULLINE DERIVATIVES” (priority 1998, published 2001).

For series [1], the system named is normal and L-NAME-treated female rats. Briefly: Systolic blood pressure by telemetry after oral citrulline in normal and L-NAME-treated female rats. The following applies: for decrease in blood pressure: 70 mg/rat at 24 h and 140 mg/rat at 48 h after pump insertion. Type of series: in vivo, rat. How it is done: (§1) FIG. 1: The effect of a single administration of citrulline on the systolic blood pressure in normal and L-NAME-treated female rats. Intact female rats chronically instrumented with telemetric transducers allowing continuous monitoring of blood pressure were subcutaneusly implanted with osmotic mini-pumps releasing 50 mg/day L-NAME or 0.9% saline (controls). 24 hours after the pump insertion, the animals received 70 mg/rat citrulline orally per gavage. The systolic blood pressure was monitored for an additional 24 hours following citrulline treatment. N=5/group.
(§2) FIG. 2: The effect of multiple administration of citrulline on the systolic blood pressure in normal and L-NAME-treated female rats. Intact female rats chronically instrumented with telemetric transducers allowing continuous monitoring of blood pressure were subcutaneously implanted with osmotic mini-pumps releasing 50 mg/day L-NAME or vehicle (controls). 24 and 48 hours after the pump insertion, the animals received 70 and 140 mg/rat citrulline orally per gavage. The systolic blood pressure was monitored for an additional 24 hours following the second citrulline treatment. N=5/group
However, the systolic BP started to raise 4 hours after citrulline treatment.
In the experiment which results are presented in FIG. 2, the animals were treated twice with citrulline, i.e. 24 hours (70 mg/rat) and 48 after the start of L-NAME infusion. Similarly to FIG. 1, the first administration of citrulline was performed when the animals became hypertensive following L-NAME infusion.

Series [2] shares this test system. Briefly: Heart rate by telemetry after oral citrulline in normal and L-NAME-treated female rats. Type of series: in vivo, rat. How it is done: FIG. 3: The effect of a single administration of citrulline on the heart rate in normal and L-NAME-treated female rats. Intact female rats chronically instrumented with telemetric transducers allowing continuous monitoring of heart rate were subcutaneously implanted with osmotic mini-pumps releasing 50 mg/day L-NAME or 0.9% saline (controls). 24 hours after the pump insertion, the animals received 70 mg/rat citrulline orally per gavage. The heart rate was monitored for an additional 24 hours following citrulline treatment. N=5/group
At this time there was also a pronounced increase in heart rate in the L-NAME-treated rats (to 400-450 times/minute). Following a single oral citrulline (70 mg) administration, there was a rapid and very pronounced (p<0.05) decrease in heart rate to approximately 100 times/minute reaching a plateau already 1 hour after treatment. […] The effects of citrulline sustained for 24 hours in both treatment and control groups of citrulline treatment.

Series [3] shares this test system. Briefly: Observation of side-effects of citrulline administration in the rat experiments. Type of series: in vivo. The settings on record: oral 70 or 140 mg/rat, any experiment. How it is done: as §1, §2
FIG. 3: The effect of a single administration of citrulline on the heart rate in normal and L-NAME-treated female rats. […] The heart rate was monitored for an additional 24 hours following citrulline treatment. […]

The mark [4] stands for this setting: female rats, 50 mg/day L-NAME by subcutaneous osmotic mini-pump, before citrulline.
Setting [5] is: control female rats infused with vehicle, single oral 70 mg citrulline.

Take `COC(=O)[C@@H](N)CCCNC(=N)N[N+](=O)[O-]` [L-NAME, N^G-nitro-L-arginine methyl ester, reference compound]: the “blood pressure effect 24 hours after start of L-NAME infusion” value in series [1] (setting [4]) is “substantial hypertension”. In series [2] (setting [4]), the “heart rate 24 hours after start of L-NAME infusion” value was 400-450 times/minute.

With `NC(=O)NCCC[C@H](N)C(=O)O` [citrulline], the “effect of second dose of 140 mg on blood pressure compared with first dose of 70 mg” value in series [1] (L-NAME- and vehicle-treated female rats, multiple oral administration) is on record as “slightly more effective”. Further, the “change in systolic blood pressure” value in series [1] (L-NAME-treated (50 mg/day, osmotic mini-pump) female rats, single oral 70 mg citrulline 24 h after start of L-NAME infusion, N=5/group) was “rapid and significant (p<0.05) decrease in systolic blood pressure”. In series [1] (L-NAME-treated female rats, multiple oral administration), the “decrease in blood pressure” value was 30-40%. Also, in series [1] (setting [5]), the “change in blood pressure” value was “reduced blood pressure” and the “time after treatment at which systolic BP started to rise” value worked out at 4 h. Besides, the “hypertension and increase in heart rate induced by NOS inhibition with L-NAME” value in series [1] (female rats, citrulline administered orally, overall conclusion) is “partially attenuated”. In addition, in series [1] (vehicle-treated female rats, multiple oral administration), the “decrease in blood pressure” value was 30-40%. Moreover, the “time to plateau of heart rate decrease after treatment” value in series [2] (L-NAME-treated female rats, single oral 70 mg citrulline) was found to be 1 h. Also, in series [2] (L-NAME-treated female rats, single oral 70 mg citrulline 24 h after start of L-NAME infusion, p<0.05), the “heart rate after treatment” value is reported as “approximately 100 times/minute”. Further, the “duration of the effects on heart rate” value in series [2] (both treatment (L-NAME) and control groups, single oral 70 mg citrulline) is 24 h. In addition, the “change in heart rate” value in series [2] (setting [5]) is recorded as “reduced heart rate”. Besides, the “side-effects of citrulline administration” value in series [3] is “No side-effects”.
